In patent publication US20110305784A1, “Fractionated products obtained from gamboge resin, and medical uses of the same” (priority 2010, published 2011):
Converted amounts (≈) assume the structure as drawn. Where two headings read alike, the source gives them in different places.

Tests used:
[1] = system: Human umbilical venal epithelial cell (HUVEC); test: in vitro; conditions: HUVEC; for IC50: Homo sapiens
Source text: (§1) The in vitro anti-cancer test was primarily used to detect the effect of a candidate drug on cancer cell proliferation. The working principle involved therein is the ability of viable cells to shift alamarBlue (AbD Serotec, UK) from its originally non-fluorescent oxidized state (non-fluorescent, blue) to a reduced form (fluorescent, red) having fluorescence via metabolic reaction. According to the fluorescent data result generated by the alamarBlue reagent thus obtained, the proliferation of the viable cells and cell activity can be quantified for detection.
(§2) In the in vitro anti-cancer tests, a candidate drug was tested at 5 different concentrations of 0.01, 0.1, 1, 10, and 100 μg/ml, and six human cancer cell lines and a normal human cell line were used (see Table 10).

[2] = system: Human breast adenocarcinoma cell MCF7; test: cells; conditions: for CC50: MCF7, read-out: LC50 (50% lethal concentration)
Source text: as §1, §2

[3] = system: Human histocytic lymphoma cell U937; test: cells; conditions: for CC50: U-937, read-out: LC50 (50% lethal concentration)
Source text: as §1, §2

[4] = in vitro; conditions: human
Source text: as §1, §2

[5] = system: Human colon adenocarcinoma cell HT-29; test: cells; conditions: for CC50: HT-29, read-out: LC50 (50% lethal concentration)
Source text: as §1, §2

[6] = system: Human promyelocytic leukemia cell HL-60; test: cells; conditions: for CC50: HL-60, read-out: LC50 (50% lethal concentration)
Source text: as §1, §2

[7] = system: Human lung carcinoma cell A549; test: cells; conditions: for CC50: A549, read-out: LC50 (50% lethal concentration)
Source text: as §1, §2

[8] = system: Human hepatocellular carcinoma cell HepG2; test: cells; conditions: for CC50: HepG2, read-out: LC50 (50% lethal concentration)
Source text: as §1, §2

[9] = MCF7, read-out: IC50 (50% inhibition concentration)
[10] = U-937, read-out: IC50 (50% inhibition concentration)
[11] = HL-60, read-out: IC50 (50% inhibition concentration)
[12] = read-out: IC50 (50% inhibition concentration), HUVEC
[13] = HT-29, read-out: IC50 (50% inhibition concentration), HT-29
[14] = MCF7, read-out: IC50 (50% inhibition concentration), MCF-7
[15] = U-937, read-out: IC50 (50% inhibition concentration), U937
[16] = HL-60, read-out: IC50 (50% inhibition concentration), HL-60
[17] = A549, read-out: IC50 (50% inhibition concentration), A549
[18] = HepG2, read-out: IC50 (50% inhibition concentration), HepG2

| SMILES | LC50 (50% lethal concentration) [1] [µg/mL] | CC50 [3] [µg/mL] | CC50 [5] [µg/mL] | CC50 [2] [µg/mL] | CC50 [6] [µg/mL] | CC50 [7] [µg/mL] | CC50 [8] [µg/mL] | IC50 [6, 11] [µg/mL] | also measured |
| --- | --- | --- | --- | --- | --- | --- | --- | --- | --- |
| CC(C)=CCC[C@]1(C)C[C@H](O)c2c(O)c3c(c(CC=C(C)C)c2O1)O[C@]12C(=C[C@@H]4CC1C(C)(C)O[C@]2(C/C=C(/C)C(=O)O)C4=O)C3=O (stereo in doubt) [Gh-2641-1, neogambogic acid] | 4.3 (≈ 6.65 µM) | 1 (≈ 1.55 µM) | – | – | – | – | – | – | IC50 [2, 9]: 0.2 µg/mL (≈ 0.309 µM) |
| CC(C)=CCC[C@@]1(C)C=Cc2c(O)c3c(c(CC(O)C(C)(C)O)c2O1)O[C@]12C(=C[C@@H]4CC1C(C)(C)OC2(C/C=C(/C)C(=O)O)C4=O)C3=O (stereo partly shown) [Gh-1036, epiformoxanthone F] | – | 0.81 (≈ 1.22 µM) | 12 (≈ 18.1 µM) | 3.8 (≈ 5.73 µM) | 3.1 (≈ 4.68 µM) | 0.52 (≈ 0.785 µM) | 8.6 (≈ 13 µM) | – | CC50 [4]: 4.8 µg/mL (≈ 7.24 µM) |
| C=C(C)C1CC[C@@]2(C)Oc3c(CC=C(C)C)c4c(c(O)c3[C@@H]1C2O)C(=O)C1=C[C@@H]2CC3C(C)(C)OC(C/C=C(/C)C(=O)O)(C2=O)[C@@]13O4 (stereo partly drawn) [Gh-1050, 3α-hydroxygambogellic acid] | – | 2.3 (≈ 3.57 µM) | 7.7 (≈ 11.9 µM) | 1 (≈ 1.55 µM) | 7 (≈ 10.9 µM) | 0.74 (≈ 1.15 µM) | 3.8 (≈ 5.89 µM) | 0.17 (≈ 0.264 µM) | CC50 [4]: 3.4 µg/mL (≈ 5.27 µM); IC50 ([1]; read-out: IC50 (50% inhibition concentration)): 0.78 µg/mL (≈ 1.21 µM); IC50 ([5]; HT-29, read-out: IC50 (50% inhibition concentration)): 4.8 µg/mL (≈ 7.44 µM); IC50 [2, 9]: 0.14 µg/mL (≈ 0.217 µM); IC50 [3, 10]: 0.21 µg/mL (≈ 0.326 µM); IC50 ([7]; A549, read-out: IC50 (50% inhibition concentration)): 0.13 µg/mL (≈ 0.202 µM); IC50 ([8]; HepG2, read-out: IC50 (50% inhibition concentration)): 1.1 µg/mL (≈ 1.71 µM) |
| CC(C)=CCC[C@]1(C)C=Cc2c(O)c3c(c(CC(O)C(C)(C)O)c2O1)O[C@]12C(=C[C@@H]4CC1C(C)(C)OC2(C/C=C(/C)C(=O)O)C4=O)C3=O (stereo partly shown) [Gh-1052, formoxanthone F] | – | 0.69 (≈ 1.04 µM) | 5.7 (≈ 8.6 µM) | 2.4 (≈ 3.62 µM) | 3.4 (≈ 5.13 µM) | 2.5 (≈ 3.77 µM) | 4 (≈ 6.04 µM) | – | CC50 [4]: 3.1 µg/mL (≈ 4.68 µM) |
| CC(C)=CCC[C@]1(C)C=Cc2c(O)c3c(c(CC=C(C)C)c2O1)O[C@]12C(=C[C@@H]4CC1C(C)(C)O[C@]2(C/C=C(/CO)C(=O)O)C4=O)C3=O [Gh-1601-A, 30-hydroxygambogic acid] | – | 0.28 (≈ 0.434 µM) | 0.77 (≈ 1.19 µM) | 4.4 (≈ 6.82 µM) | 3 (≈ 4.65 µM) | 6.6 (≈ 10.2 µM) | 4.1 (≈ 6.36 µM) | – | IC50 [1, 12]: 0.19 µg/mL (≈ 0.295 µM); IC50 [5, 13]: 0.17 µg/mL (≈ 0.264 µM); IC50 [2, 14]: 0.72 µg/mL (≈ 1.12 µM); IC50 [3, 15]: 0.09 µg/mL (≈ 0.14 µM); IC50 [6, 16]: 0.56 µg/mL (≈ 0.869 µM); IC50 [7, 17]: 0.11 µg/mL (≈ 0.171 µM); IC50 [8, 18]: 1.3 µg/mL (≈ 2.02 µM) |
| CC(C)=CCC[C@@]1(C)C=Cc2c(O)c3c(c(CC=C(C)C)c2O1)O[C@]12C(=C[C@@H]4CC1C(C)(C)O[C@]2(C/C=C(/CO)C(=O)O)C4=O)C3=O [Gh-1602, 30-hydroxyepigambogic acid] | – | 0.69 (≈ 1.07 µM) | 4.2 (≈ 6.51 µM) | 4 (≈ 6.2 µM) | 3.3 (≈ 5.12 µM) | 3.7 (≈ 5.74 µM) | 3.5 (≈ 5.43 µM) | – | IC50 [1, 12]: 0.25 µg/mL (≈ 0.388 µM); IC50 [5, 13]: 0.94 µg/mL (≈ 1.46 µM); IC50 [2, 14]: 0.27 µg/mL (≈ 0.419 µM); IC50 [3, 15]: 0.14 µg/mL (≈ 0.217 µM); IC50 [6, 16]: 1 µg/mL (≈ 1.55 µM); IC50 [7, 17]: 0.4 µg/mL (≈ 0.62 µM); IC50 [8, 18]: 1.3 µg/mL (≈ 2.02 µM) |
| CC(C)=CCC[C@]1(C)C=Cc2c(O)c3c(c(CC=C(C)C)c2O1)O[C@]12C(=C[C@@H]4CC1C(C)(C)O[C@]2(C/C=C(\C)C(=O)O)C4=O)C3=O [Gh-1641, isogambogic acid] | 1.3 (≈ 2.07 µM) | – | – | – | – | 3 (≈ 4.77 µM) | – | 8 (≈ 12.7 µM) | – |
| CC(C)=CCC[C@@]1(C)C=Cc2c(O)c3c(c(CC=C(C)C)c2O1)O[C@]12C(=C[C@@H]4CC1C(C)(C)O[C@]2(C/C=C(\C)C(=O)O)C4=O)C3=O [Gh-1642, epiisogambogic acid] | 1.3 (≈ 2.07 µM) | – | – | – | – | – | – | 6 (≈ 9.54 µM) | – |
| CC(C)=CCc1c2c(c(O)c3c1O[C@]14C(=C[C@@H]5CC1C(C)(C)O[C@]4(C/C=C(\C)C=O)C5=O)C3=O)C=CC(C)(C)O2 [Gh-2501, isomorellin] | 1.8 (≈ 3.3 µM) | – | 4 (≈ 7.34 µM) | – | 4 (≈ 7.34 µM) | – | – | 1 (≈ 1.84 µM) | IC50 [3, 10]: 0.9 µg/mL (≈ 1.65 µM) |
| CC(C)=CCC/C(C)=C/Cc1c(O)c(CC=C(C)C)c2c(c1O)C(=O)C1=C[C@@H]3CC4C(C)(C)O[C@](C/C=C(/C)C(=O)O)(C3=O)[C@@]14O2 [Gh-2505, gambogenic acid] | 2.3 (≈ 3.65 µM) | – | – | – | – | – | – | – | – |
| C=C(C)[C@@H]1CC[C@@]2(C)CC1c1c(O)c3c(c(CC=C(C)C)c1O2)O[C@]12C(=C[C@@H]4CC1C(C)(C)O[C@]2(/C=C/C(C)C(=O)O)C4=O)C3=O (stereo partly drawn) [Gh-2507, β-epigambogellic acid] | 21.0 (≈ 33.4 µM) | – | – | – | – | – | – | 0.2 (≈ 0.318 µM) | – |
